From patent US10189836B2, “Therapeutic compounds, compositions and methods of use thereof” (Genentech, Inc., priority 2015, dated 2019)

Assays:
[1] = target: isolated recombinant JAK2 kinase domain (Homo sapiens (Human), UniProt O60674); assay: JAK2 enzyme assay (Caliper LabChip, Ki); format: biochemical; conditions: isolated recombinant JAK2 kinase domain, 0.2 nM enzyme, ATP 25 μM
[2] = target: isolated recombinant JAK1 kinase domain (Homo sapiens (Human), UniProt P23458); assay: JAK1 enzyme assay (Caliper LabChip, Ki); format: biochemical; conditions: isolated recombinant JAK1 kinase domain, 1.5 nM enzyme, ATP 25 μM
Chain of isolated recombinant JAK1 kinase domain (P23458 875-1153): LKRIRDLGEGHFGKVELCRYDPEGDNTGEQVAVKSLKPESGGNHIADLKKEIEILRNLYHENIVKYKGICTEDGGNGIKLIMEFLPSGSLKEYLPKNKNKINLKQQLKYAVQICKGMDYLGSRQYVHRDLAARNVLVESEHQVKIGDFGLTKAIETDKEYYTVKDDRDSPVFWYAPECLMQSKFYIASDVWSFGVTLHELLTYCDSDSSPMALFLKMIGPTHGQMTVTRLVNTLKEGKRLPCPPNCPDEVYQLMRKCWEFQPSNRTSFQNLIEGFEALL

Chain of isolated recombinant JAK2 kinase domain (O60674 849-1124): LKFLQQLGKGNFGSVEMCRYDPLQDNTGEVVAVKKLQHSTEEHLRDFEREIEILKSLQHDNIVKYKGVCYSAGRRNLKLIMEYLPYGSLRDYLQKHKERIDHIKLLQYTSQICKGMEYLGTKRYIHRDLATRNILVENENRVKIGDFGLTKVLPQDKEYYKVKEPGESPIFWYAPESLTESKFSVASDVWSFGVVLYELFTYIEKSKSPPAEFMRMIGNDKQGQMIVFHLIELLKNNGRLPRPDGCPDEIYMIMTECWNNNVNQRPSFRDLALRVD

Row | SMILES | Ki [1] [nM] | Ki [2] [nM]
1 | CN1CCN(C(=O)Cn2cc(Nc3nc4c(N5CC6CCC(C5)N6CC5(CS(C)(=O)=O)CC5)cccn4n3)cn2)CC1 [Example 109, 1-(4-methylpiperazin-1-yl)-2-[4-[[8-[8-([1-(methylsulfonylmethyl)cyclopropyl]methyl]-3,8-diazabicyclo[3.2.1]octan-3-yl]-[1,2,4]triazolo[1,5-a]pyridin-2-yl]amino]pyrazol-1-yl]ethanone] | 7 | 4.8
2 | O=C(Cn1cc(Nc2nc3c(N4CC5CCC(C4)N5C(=O)N4CC(C(F)(F)F)C4)cccn3n2)cn1)N1CCC(N2CCOCC2)CC1 [Example 44, 1-(4-morpholino-1-piperidyl)-2-[4-[[8-[8-[3-(trifluoromethyl)azetidine-1-carbonyl]-3,8-diazabicyclo[3.2.1]octan-3-yl]-[1,2,4]triazolo[1,5-a]pyridin-2-yl]amino]pyrazol-1-yl]ethanone] | 0.6 | 0.9
3 | O=C(Cn1cc(Nc2nc3c(N4CC5CCC(C4)N5C(=O)N4CC(C(F)(F)F)C4)cccn3n2)cn1)N1CCC(CN2CCOCC2)CC1 [Example 121, 1-[4-(morpholinomethyl)-1-piperidyl]-2-[4-[[8-[8-[3-(trifluoromethyl)azetidine-1-carbonyl]-3,8-diazabicyclo[3.2.1]octan-3-yl]-[1,2,4]triazolo[1,5-a]pyridin-2-yl]amino]pyrazol-1-yl]ethanone] | 0.7 | 0.7
4 | CN1CCN(C(=O)Cn2cc(Nc3nc4c(N5CC6CCC(C5)N6S(=O)(=O)c5cccs5)cccn4n3)cn2)CC1 [Example 112, 1-(4-methylpiperazin-1-yl)-2-[4-[[8-[8-(2-thienylsulfonyl)-3,8-diazabicyclo[3.2.1]octan-3-yl]-[1,2,4]triazolo[1,5-a]pyridin-2-yl]amino]pyrazol-1-yl]ethanone] | 0.7 | 0.5
5 | CN1CCN(C(=O)Cn2cc(Nc3nc4c(N5CC6CCCC(C5)N6C(=O)CC5CC(F)(F)C5)cccn4n3)cn2)CC1 [Example 97, 2-(3,3-difluorocyclobutyl)-1-[3-[2-[[1-[2-(4-methylpiperazin-1-yl)-2-oxo-ethyl]pyrazol-4-yl]amino]-[1,2,4]triazolo[1,5-a]pyridin-8-yl]-3,9-diazabicyclo[3.3.1]nonan-9-yl]ethanone] | 0.5 | 0.6
6 | CN1CCN(C(=O)Cn2cc(Nc3nc4c(N5CC6CCC(C5)N6S(=O)(=O)c5ccccc5)cccn4n3)cn2)CC1 [Example 61, 2-[4-[[8-[8-(benzenesulfonyl)-3,8-diazabicyclo[3.2.1]octan-3-yl]-[1,2,4]triazolo[1,5-a]pyridin-2-yl]amino]pyrazol-1-yl]-1-(4-methylpiperazin-1-yl)ethanone] | 1 | 0.6
7 | CN1CCN(C(=O)Cn2cc(Nc3nc4c(N5CC6CCC(C5)N6C(=O)N5CC(C(F)(F)F)C5)cccn4n3)cn2)CC1 [Example 2, 1-(4-methylpiperazin-1-yl)-2-[4-[[8-[8-[3-(trifluoromethyl)azetidine-1-carbonyl]-3,8-diazabicyclo[3.2.1]octan-3-yl]-[1,2,4]triazolo[1,5-a]pyridin-2-yl]amino]pyrazol-1-yl]ethanone] | 0.4 | 0.5
8 | CN1CCN(C(=O)Cn2cc(Nc3nc4c(N5CC6CCC(C5)N6C(=O)Cc5ccc(F)cc5)cccn4n3)cn2)CC1 [Example 66, 2-(4-fluorophenyl)-1-[3-[2-[[1-[2-(4-methylpiperazin-1-yl)-2-oxo-ethyl]pyrazol-4-yl]amino]-[1,2,4]triazolo[1,5-a]pyridin-8-yl]-3,8-diazabicyclo[3.2.1]octan-8-yl]ethanone] | 1.4 | 0.7
9 | CN1CCN(C(=O)Cn2cc(Nc3nc4c(N5CC6CCC(C5)N6C(=O)C5CCSCC5)cccn4n3)cn2)CC1 [Example 52, 1-(4-methylpiperazin-1-yl)-2-[4-[[8-[8-(tetrahydrothiopyran-4-carbonyl)-3,8-diazabicyclo[3.2.1]octan-3-yl]-[1,2,4]triazolo[1,5-a]pyridin-2-yl]amino]pyrazol-1-yl]ethanone] | 5.2 | 3.1
10 | CSc1ccccc1C(=O)N1C2CCC1CN(c1cccn3nc(Nc4cnn(CC(=O)N5CCN(C)CC5)c4)nc13)C2 [Example 115] | 2.1 | 1
11 | CN1CCN(C(=O)Cn2cc(Nc3nc4c(N5CC6CCC(C5)N6C(=O)C5CC6CCC5O6)cccn4n3)cn2)CC1 (stereo not shown) [Example 53, 1-(4-methylpiperazin-1-yl)-2-[4-[[8-[8-(7-oxabicyclo[2.2.1]heptane-3-carbonyl)-3,8-diazabicyclo[3.2.1]octan-3-yl]-[1,2,4]triazolo[1,5-a]pyridin-2-yl]amino]pyrazol-1-yl]ethanone] | 2.8 | 1.9
12 | CN1CCN(C(=O)Cn2cc(Nc3nc4c(N5CC6CC(C5)N6Cc5ccc(Cl)cc5)cccn4n3)cn2)CC1 [Example 34, 2-[4-[(8-[6-[(4-chlorophenyl)methyl]-3,6-diazabicyclo[3.1.1]heptan-3-yl]-[1,2,4]triazolo[1,5-a]pyridin-2-yl)amino]-1H-pyrazol-1-yl]-1-(4-methylpiperazin-1-yl)ethan-1-one] | 271 | 68.8
13 | CN1CCN(C(=O)Cn2cc(Nc3nc4c(N5CC6CCC(C5)N6S(=O)(=O)c5ccc(Cl)cc5F)cccn4n3)cn2)CC1 [Example 136, 2-[4-[[8-[8-(4-chloro-2-fluoro-phenyl)sulfonyl-3,8-diazabicyclo[3.2.1]octan-3-yl]-[1,2,4]triazolo[1,5-a]pyridin-2-yl]amino]pyrazol-1-yl]-1-(4-methylpiperazin-1-yl)ethanone] | 6.2 | 2
14 | CN1CCN(C(=O)Cn2cc(Nc3nc4c(N5CC6CCC(C5)N6C(=O)Cc5ccccc5F)cccn4n3)cn2)CC1 [Example 64, 2-(2-fluorophenyl)-1-[3-[2-[[1-[2-(4-methylpiperazin-1-yl)-2-oxo-ethyl]pyrazol-4-yl]amino]-[1,2,4]triazolo[1,5-a]pyridin-8-yl]-3,8-diazabicyclo[3.2.1]octan-8-yl]ethanone] | 7.2 | 1.9
15 | O=C(Cn1cc(Nc2nc3c(N4CC5CCC(C4)N5C(=O)[C@H]4C[C@H](C(F)(F)F)C4)cccn3n2)cn1)N1CCN(C2CSC2)CC1 [Example 83, 1-[4-(thietan-3-yl)piperazin-1-yl]-2-[4-[[8-[8-[3-(trifluoromethyl)cyclo-butanecarbonyl]-3,8-diazabicyclo[3.2.1]octan-3-yl]-[1,2,4]triazolo[1,5-a]pyridin-2-yl]amino]pyrazol-1-yl]ethanone] | 4 | 1.6
16 | CN1CCN(C(=O)Cn2cc(Nc3nc4c(N5CC6CCC(C5)N6S(=O)(=O)Cc5ccccc5)cccn4n3)cn2)CC1 [Example 108, 2-[4-[[8-(8-benzylsulfonyl-3,8-diazabicyclo[3.2.1]octan-3-yl)-[1,2,4]triazolo[1,5-a]pyridin-2-yl]amino]pyrazol-1-yl]-1-(4-methylpiperazin-1-yl)ethanone] | 2.7 | 1
17 | CN1CCN(C(=O)Cn2cc(Nc3nc4c(N5C[C@H]6CC[C@@H](C5)[C@H]6OCc5ccc(F)nc5)cccn4n3)cn2)CC1 [Example 162, 1-(4-methylpiperazin-1-yl)-2-[4-[[8-[rac-(1S,5R)-8-[(6-fluoro-3-pyridyl)methoxy]-3-azabicyclo[3.2.1]octan-3-yl]-[1,2,4]triazolo[1,5-a]pyridin-2-yl]amino]pyrazol-1-yl]ethanone] | 0.6 | 0.6
18 | CSc1ccc(C(=O)N2C3CCC2CN(c2cccn4nc(Nc5cnn(CC(=O)N6CCN(C)CC6)c5)nc24)C3)cc1 [Example 99, 1-(4-methylpiperazin-1-yl)-2-[4-[[8-[8-(4-methylsulfanylbenzoyl)-3,8-diazabicyclo[3.2.1]octan-3-yl]-[1,2,4]triazolo[1,5-a]pyridin-2-yl]amino]pyrazol-1-yl]ethanone] | 5.4 | 1.6
19 | CSCCN1CCN(C(=O)Cn2cc(Nc3nc4c(N5CC6CCC(C5)N6C(=O)N5CC(C(F)(F)F)C5)cccn4n3)cn2)CC1 [Example 186, 1-[4-(2-methylsulfanylethyl)piperazin-1-yl]-2-[4-[[8-[8-(3-(trifluoromethyl)azetidine-1-carbonyl]-3,8-diazabicyclo[3.2.1]octan-3-yl]-[1,2,4]triazolo[1,5-a]pyridin-2-yl]amino]pyrazol-1-yl]ethanone; formic acid] | 0.2 | 0.2
20 | CN1CCN(C(=O)Cn2cc(Nc3nc4c(N5CC6CCC(C5)N6C(=O)c5ccns5)cccn4n3)cn2)CC1 [Example 87, 2-[4-[[8-[8-(isothiazole-5-carbonyl)-3,8-diazabicyclo[3.2.1]octan-3-yl]-[1,2,4]triazolo[1,5-a]pyridin-2-yl]amino]pyrazol-1-yl]-1-(4-methylpiperazin-1-yl)ethanone] | 0.9 | 0.6
21 | CN1CCN(C(=O)Cn2cc(Nc3nc4c(N5CC6CCC(C5)N6S(=O)(=O)Cc5ccc(C#N)cc5)cccn4n3)cn2)CC1 [Example 168, 4-[[3-[2-[[1-[2-(4-methylpiperazin-1-yl)-2-oxo-ethyl]pyrazo1-4-yl]amino]-[1,2,4]triazolo[1,5-a]pyridin-8-yl]-3,8-diazabicyclo[3.2.1]octan-8-yl]sulfonylmethyl]-benzonitrile] | 4.4 | 2.7
22 | CN1CCN(C(=O)Cn2cc(Nc3nc4c(N5CC6CCC(C5)N6C(=O)C5C6CC(F)(F)CC65)cccn4n3)cn2)CC1 (stereo not shown) [Example 49, 2-[4-[[8-[8-(3,3-difluorobicyclo[3.1.0]hexane-6-carbonyl)-3,8-diazabicyclo[3.2.1]octan-3-yl]-[1,2,4]triazolo[1,5-a]pyridin-2-yl]amino]pyrazol-1-yl]-1-(4-methylpiperazin-1-yl)ethanone] | 4.1 | 1.5
23 | CN1CCN(C(=O)Cn2cc(Nc3nc4c(N5CC6CCC(C5)N6C(=O)N5CC(O)(C(F)(F)F)C5)cccn4n3)cn2)CC1 [Example 141, 2-[4-[[8-[8-[3-hydroxy-3-(trifluoromethyl)azetidine-1-carbonyl]-3,8-diazabicyclo[3.2.1]octan-3-yl]-[1,2,4]triazolo[1,5-a]pyridin-2-yl]amino]pyrazol-1-yl]-1-(4-methylpiperazin-1-yl)ethanone] | 0.3 | 0.2
